Measured values: paper PMC12679550 (ACS Chemical Neuroscience, 2025)
Like-named read-outs stand apart in the source and are kept apart here.

How the values were obtained:
human α1Rs = details: in vitro, literature, cited from earlier work
α2AR [1] = molecular target: T1, α2AR (Homo sapiens, UniProt P08913); details: α2AR-expressing CHO-K1 cells
T1 sequence (P08913 1-465): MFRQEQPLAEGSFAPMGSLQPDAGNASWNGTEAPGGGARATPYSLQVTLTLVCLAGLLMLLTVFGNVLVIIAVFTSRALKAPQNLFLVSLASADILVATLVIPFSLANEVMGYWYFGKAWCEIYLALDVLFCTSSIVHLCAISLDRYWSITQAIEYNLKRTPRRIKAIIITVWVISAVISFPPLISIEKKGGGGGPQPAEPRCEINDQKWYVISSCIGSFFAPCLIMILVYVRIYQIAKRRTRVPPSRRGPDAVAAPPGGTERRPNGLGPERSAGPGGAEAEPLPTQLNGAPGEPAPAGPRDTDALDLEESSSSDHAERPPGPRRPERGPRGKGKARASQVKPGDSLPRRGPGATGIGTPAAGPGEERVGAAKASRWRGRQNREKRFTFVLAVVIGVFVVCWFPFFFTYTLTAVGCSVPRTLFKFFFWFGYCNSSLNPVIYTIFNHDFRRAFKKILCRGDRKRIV

human α2Rs = details: in vitro, literature, cited from earlier work
α2AR [2] = molecular target: T1, α2AR; assay: cell-based
β1 and β2 adrenoceptors = details: in vitro; literature; read-out: Affinity (Kd) at β1 and β2 adrenoceptors; cited from earlier work
[3] = system: pERK in HEK293 cells transfected with human α2ARs; assay: ERK phosphorylation in α2AR-transfected HEK293 cells; format: cell-based; details: 1 μM, 5 min
Procedure: (§1) Cells were serum-starved for 75 min and treated with ligands in 1 mL of fresh DMEM in the absence of serum as described in the figure legends. Cells were washed three times with ice-cold phosphate-buffered saline, lysed on ice in Radio-Immunoprecipitation Assay buffer, centrifuged to clarify the supernatant, normalized to protein concentration, and boiled in Laemmli sample buffer. Following sodium dodecyl sulfate–polyacrylamide gel electrophoresis, gels were transferred, blocked in 5% BSA and incubated with 1:1000 rabbit phospho-ERK1/2 (#9101, Cell Signaling Technology, Danvers, MA) and imaged with enhanced chemiluminescence (ECL). Blots were stripped and reprobed with rabbit ERK1/2 (#9102, Cell Signaling Technology) antibody and imaged with ECL to assess protein loading.

[4] = system: pERK in nontransfected HEK293 cells; assay: ERK phosphorylation in nontransfected, knockout and antagonist-cotreated HEK293 cells; format: cell-based, human; details: for pERK-stimulating effect with 100 nM atipamezole cotreatment / pERK-stimulating effect with 100 nM prazosin cotreatment: HEK293; for pERK-stimulating effect with 100 nM prazosin cotreatment: CLON and ISO 1 μM, mitragynine 1 μM; for pERK, nontransfected HEK293: concentration not given
Procedure: as §1

α1AR [5] = molecular target: T2, α1AR (Homo sapiens, UniProt P35348); assay: cell-based
T2 sequence (P35348 1-466): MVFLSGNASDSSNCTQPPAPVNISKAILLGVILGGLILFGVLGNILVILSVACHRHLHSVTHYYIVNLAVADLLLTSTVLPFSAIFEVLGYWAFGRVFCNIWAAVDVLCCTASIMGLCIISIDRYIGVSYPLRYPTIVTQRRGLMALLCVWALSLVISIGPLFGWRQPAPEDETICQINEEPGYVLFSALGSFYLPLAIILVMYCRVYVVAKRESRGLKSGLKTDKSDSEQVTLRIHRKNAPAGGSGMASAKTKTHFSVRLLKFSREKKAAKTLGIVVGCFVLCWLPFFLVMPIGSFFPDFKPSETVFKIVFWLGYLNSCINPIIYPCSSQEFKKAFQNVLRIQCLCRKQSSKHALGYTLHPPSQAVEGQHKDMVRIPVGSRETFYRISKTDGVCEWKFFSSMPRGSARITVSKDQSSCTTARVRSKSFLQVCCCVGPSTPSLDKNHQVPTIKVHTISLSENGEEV

α2AR [6] = molecular target: T1, α2AR; details: data not shown
rat α2AR [7] = molecular target: T3, rat α2AR (Rattus norvegicus, UniProt P22909); details: agonist mode; HEK293 cells; Figure S2
T3 sequence (P22909 1-465): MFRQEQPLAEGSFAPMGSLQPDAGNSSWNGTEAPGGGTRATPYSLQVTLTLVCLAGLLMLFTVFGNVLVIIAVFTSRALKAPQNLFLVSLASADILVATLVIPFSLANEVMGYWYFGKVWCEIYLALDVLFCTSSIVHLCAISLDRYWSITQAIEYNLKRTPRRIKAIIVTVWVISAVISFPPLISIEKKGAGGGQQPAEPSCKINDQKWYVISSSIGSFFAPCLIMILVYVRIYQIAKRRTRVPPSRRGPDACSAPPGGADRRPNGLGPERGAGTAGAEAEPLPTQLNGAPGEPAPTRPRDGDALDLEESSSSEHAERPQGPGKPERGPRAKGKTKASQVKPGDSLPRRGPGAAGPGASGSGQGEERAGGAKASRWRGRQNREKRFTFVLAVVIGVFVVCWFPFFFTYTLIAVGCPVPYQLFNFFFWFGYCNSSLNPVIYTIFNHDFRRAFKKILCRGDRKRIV

rat α2AR [8] = molecular target: T3, rat α2AR; details: agonist mode; CHO-K1 cells
α2AR [9] = molecular target: T1, α2AR; details: agonist mode; CHO-K1 cells
α1A and α1BR = details: read-out: EC50, α1A and α1BR-pERK; a recent report; cited from earlier work
α2AR [10] = molecular target: T1, α2AR; assay: Eurofins Cerep radioligand binding screen; parameters: Eurofins Cerep; host or cells: cell membrane homogenates; details: 10 μM; also previously reported
Procedure: (§2) The compounds were screened at each target once, in duplicate, at 100 nM and 10 μM. […] The assay was valid if the reliability criteria, K i or IC50 values within 1/2 Log of historical values, were met. Radioligand binding assay methods were as previously described with only minor modifications , (see table in Supplementary Figure S4 for radioligands, protein sources, and assay test conditions). Briefly, cell membrane homogenates were incubated with either an antagonist or agonist radioligand in the absence or presence of the test compound in a buffer. A specific unlabeled agonist or antagonist at the target determined nonspecific binding. Following incubation, the samples were filtered rapidly under vacuum through glass fiber filters presoaked in a buffer and rinsed several times with an ice-cold buffer using a 48-sample or 96-sample cell harvester. Using a scintillation cocktail, the filters were counted for radioactivity in a scintillation counter. Compound binding was calculated as a percent inhibition of the binding of the radioactively labeled ligand specific for each target. Preparatory methods for enzyme inhibition assays were similar to radioligand binding assays. These assays involved using a known substrate, stimulus, and/or tracer, and detection methods included LANCE, fluorimetry, photometry, luminescence, or scintillation counting (see table in Supplementary Figure S4). Results of the screening assays showing an inhibition or stimulation higher than 50% were designated “hits” and considered to represent significant effects of the test compounds.

α1AR [11] = molecular target: T2, α1AR; assay: Eurofins Cerep radioligand binding screen; parameters: Eurofins Cerep; host or cells: cell membrane homogenates; details: 10 μM
Procedure: as §2

any enzyme tested = assay: Eurofins Cerep enzyme inhibition screen, all enzymes tested; format: biochemical; details: 10 μM
Procedure: (§3) The compounds were screened at each target once, in duplicate, at 100 nM and 10 μM. […] The assay was valid if the reliability criteria, K i or IC50 values within 1/2 Log of historical values, were met. Radioligand binding assay methods were as previously described with only minor modifications , (see table in Supplementary Figure S4 for radioligands, protein sources, and assay test conditions). Briefly, cell membrane homogenates were incubated with either an antagonist or agonist radioligand in the absence or presence of the test compound in a buffer. A specific unlabeled agonist or antagonist at the target determined nonspecific binding. Following incubation, the samples were filtered rapidly under vacuum through glass fiber filters presoaked in a buffer and rinsed several times with an ice-cold buffer using a 48-sample or 96-sample cell harvester. Using a scintillation cocktail, the filters were counted for radioactivity in a scintillation counter. Compound binding was calculated as a percent inhibition of the binding of the radioactively labeled ligand specific for each target. Preparatory methods for enzyme inhibition assays were similar to radioligand binding assays. These assays involved using a known substrate, stimulus, and/or tracer, and detection methods included LANCE, fluorimetry, photometry, luminescence, or scintillation counting (see table in Supplementary Figure S4). […]

δ-opioid receptors = molecular target: T4, δ-opioid receptors (Homo sapiens, UniProt P41143); assay: Eurofins Cerep radioligand binding screen; details: 10 μM
T4 construct: Eurofins Cerep; host or cells: cell membrane homogenates
Procedure: as §2

α1DR = molecular target: T5, α1DR (Homo sapiens, UniProt P25100); assay: Eurofins Cerep radioligand binding screen; details: 10 μM
T5 construct: Eurofins Cerep; host or cells: cell membrane homogenates
Procedure: as §2

κ-opioid receptors = molecular target: T6, κ-opioid receptors (Homo sapiens, UniProt P41145); assay: Eurofins Cerep radioligand binding screen; details: 10 μM
T6 construct: Eurofins Cerep; host or cells: cell membrane homogenates
Procedure: as §2

α1BR = molecular target: T7, α1BR (Homo sapiens, UniProt P35368); assay: Eurofins Cerep radioligand binding screen; details: 10 μM
T7 construct: Eurofins Cerep; host or cells: cell membrane homogenates
Procedure: as §2

μ-opioid receptors = molecular target: T8, μ-opioid receptors (Homo sapiens, UniProt P35372); assay: Eurofins Cerep radioligand binding screen; details: 10 μM
T8 construct: Eurofins Cerep; host or cells: cell membrane homogenates
Procedure: as §2

α2BR = molecular target: T9, α2BR (Homo sapiens, UniProt P18089); assay: Eurofins Cerep radioligand binding screen; details: 10 μM; also previously reported
T9 construct: Eurofins Cerep; host or cells: cell membrane homogenates
Procedure: as §2

COX2 = molecular target: T10, COX2 (Homo sapiens, UniProt P35354); assay: Eurofins Cerep enzyme inhibition screen; format: biochemical; details: 10 μM
T10 construct: Eurofins Cerep
Procedure: as §3

[12] = system: voltage-gated sodium channels; assay: Eurofins Cerep radioligand binding screen; details: 10 μM
Procedure: as §2

serotonin transporter = molecular target: T11, serotonin transporter (Homo sapiens, UniProt P31645); assay: Eurofins Cerep radioligand binding screen; details: 10 μM
T11 construct: Eurofins Cerep; host or cells: cell membrane homogenates
Procedure: as §2

[13] = HEK293, read-out: Emax as percent of clonidine's maximum response, α11
[14] = HEK293, read-out: Emax as percent of clonidine's maximum response, αq

T9 sequence (P18089 whole entry): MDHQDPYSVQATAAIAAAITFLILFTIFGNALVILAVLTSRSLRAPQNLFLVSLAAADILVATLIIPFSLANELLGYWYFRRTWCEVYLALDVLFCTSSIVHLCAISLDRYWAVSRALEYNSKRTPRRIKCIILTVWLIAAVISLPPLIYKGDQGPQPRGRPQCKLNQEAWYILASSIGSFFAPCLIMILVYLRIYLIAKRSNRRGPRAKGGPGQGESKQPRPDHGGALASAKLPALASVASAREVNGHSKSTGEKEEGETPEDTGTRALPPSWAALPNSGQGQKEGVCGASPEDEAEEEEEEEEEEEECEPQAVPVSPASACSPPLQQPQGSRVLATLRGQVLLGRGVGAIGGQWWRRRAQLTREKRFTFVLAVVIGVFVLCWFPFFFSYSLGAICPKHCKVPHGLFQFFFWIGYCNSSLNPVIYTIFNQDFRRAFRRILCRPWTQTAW
T5 sequence (P25100 whole entry): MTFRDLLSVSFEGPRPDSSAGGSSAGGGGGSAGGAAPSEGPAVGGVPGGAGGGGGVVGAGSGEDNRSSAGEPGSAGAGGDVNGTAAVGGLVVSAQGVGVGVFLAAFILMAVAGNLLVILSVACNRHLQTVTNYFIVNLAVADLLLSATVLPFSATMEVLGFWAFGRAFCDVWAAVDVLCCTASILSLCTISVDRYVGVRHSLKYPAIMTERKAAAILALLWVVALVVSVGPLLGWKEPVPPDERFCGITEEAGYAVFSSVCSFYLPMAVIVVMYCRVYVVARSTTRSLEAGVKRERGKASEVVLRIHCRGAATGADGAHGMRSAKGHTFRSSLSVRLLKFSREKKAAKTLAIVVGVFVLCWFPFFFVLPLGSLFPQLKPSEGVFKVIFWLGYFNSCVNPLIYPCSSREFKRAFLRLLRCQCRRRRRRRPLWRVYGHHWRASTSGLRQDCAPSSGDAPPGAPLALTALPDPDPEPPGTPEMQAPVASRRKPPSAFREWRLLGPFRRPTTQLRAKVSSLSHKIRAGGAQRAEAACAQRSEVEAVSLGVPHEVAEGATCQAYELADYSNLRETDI
T7 sequence (P35368 whole entry): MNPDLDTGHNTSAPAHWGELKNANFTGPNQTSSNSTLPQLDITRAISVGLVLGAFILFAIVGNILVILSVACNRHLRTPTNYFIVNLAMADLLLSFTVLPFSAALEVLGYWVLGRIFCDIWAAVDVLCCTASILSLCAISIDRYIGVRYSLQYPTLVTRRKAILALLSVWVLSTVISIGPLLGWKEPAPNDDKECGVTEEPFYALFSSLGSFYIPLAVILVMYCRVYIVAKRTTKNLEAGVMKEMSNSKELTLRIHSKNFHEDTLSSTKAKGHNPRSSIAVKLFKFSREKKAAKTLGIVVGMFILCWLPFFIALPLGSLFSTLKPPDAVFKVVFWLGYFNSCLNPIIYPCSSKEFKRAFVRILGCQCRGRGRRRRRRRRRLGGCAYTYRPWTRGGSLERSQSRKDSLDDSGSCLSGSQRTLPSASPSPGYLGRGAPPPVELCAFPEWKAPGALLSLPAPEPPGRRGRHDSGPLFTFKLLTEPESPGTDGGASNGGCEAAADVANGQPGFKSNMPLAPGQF
T8 sequence (P35372 whole entry): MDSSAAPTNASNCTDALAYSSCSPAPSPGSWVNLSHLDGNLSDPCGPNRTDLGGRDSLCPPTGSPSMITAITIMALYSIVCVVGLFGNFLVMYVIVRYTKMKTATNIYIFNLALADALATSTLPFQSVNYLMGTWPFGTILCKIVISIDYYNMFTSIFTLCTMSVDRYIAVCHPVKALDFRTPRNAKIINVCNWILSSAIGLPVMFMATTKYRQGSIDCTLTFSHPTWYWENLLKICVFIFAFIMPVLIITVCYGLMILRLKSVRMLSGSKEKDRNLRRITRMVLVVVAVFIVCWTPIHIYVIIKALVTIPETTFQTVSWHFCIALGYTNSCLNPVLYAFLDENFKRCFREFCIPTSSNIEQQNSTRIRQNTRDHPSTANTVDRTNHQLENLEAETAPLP
T10 sequence (P35354 18-604): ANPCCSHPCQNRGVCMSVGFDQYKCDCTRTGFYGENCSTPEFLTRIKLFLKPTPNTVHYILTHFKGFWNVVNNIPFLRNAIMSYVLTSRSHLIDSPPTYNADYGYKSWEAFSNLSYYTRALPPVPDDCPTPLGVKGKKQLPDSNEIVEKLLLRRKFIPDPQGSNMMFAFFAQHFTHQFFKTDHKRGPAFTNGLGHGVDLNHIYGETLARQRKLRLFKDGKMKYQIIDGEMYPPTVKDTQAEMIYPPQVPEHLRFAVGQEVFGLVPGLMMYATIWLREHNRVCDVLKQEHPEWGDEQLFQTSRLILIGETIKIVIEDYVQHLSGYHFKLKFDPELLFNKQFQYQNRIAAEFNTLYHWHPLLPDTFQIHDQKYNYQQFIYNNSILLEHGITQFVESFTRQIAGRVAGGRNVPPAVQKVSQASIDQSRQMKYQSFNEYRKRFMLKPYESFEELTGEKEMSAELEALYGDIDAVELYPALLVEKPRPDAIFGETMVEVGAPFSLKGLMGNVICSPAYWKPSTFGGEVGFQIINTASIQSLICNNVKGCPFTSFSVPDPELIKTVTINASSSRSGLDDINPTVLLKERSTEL
T6 sequence (P41145 whole entry): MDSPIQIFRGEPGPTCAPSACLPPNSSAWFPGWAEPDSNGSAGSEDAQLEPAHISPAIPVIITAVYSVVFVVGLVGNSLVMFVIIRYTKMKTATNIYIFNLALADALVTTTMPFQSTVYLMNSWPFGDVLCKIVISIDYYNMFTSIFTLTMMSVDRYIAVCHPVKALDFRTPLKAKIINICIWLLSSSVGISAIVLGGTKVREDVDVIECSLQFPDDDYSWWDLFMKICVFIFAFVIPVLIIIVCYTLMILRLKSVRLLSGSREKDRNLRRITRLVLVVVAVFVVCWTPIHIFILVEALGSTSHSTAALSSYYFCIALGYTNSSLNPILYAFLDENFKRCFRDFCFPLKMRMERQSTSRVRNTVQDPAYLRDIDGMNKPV
T11 sequence (P31645 whole entry): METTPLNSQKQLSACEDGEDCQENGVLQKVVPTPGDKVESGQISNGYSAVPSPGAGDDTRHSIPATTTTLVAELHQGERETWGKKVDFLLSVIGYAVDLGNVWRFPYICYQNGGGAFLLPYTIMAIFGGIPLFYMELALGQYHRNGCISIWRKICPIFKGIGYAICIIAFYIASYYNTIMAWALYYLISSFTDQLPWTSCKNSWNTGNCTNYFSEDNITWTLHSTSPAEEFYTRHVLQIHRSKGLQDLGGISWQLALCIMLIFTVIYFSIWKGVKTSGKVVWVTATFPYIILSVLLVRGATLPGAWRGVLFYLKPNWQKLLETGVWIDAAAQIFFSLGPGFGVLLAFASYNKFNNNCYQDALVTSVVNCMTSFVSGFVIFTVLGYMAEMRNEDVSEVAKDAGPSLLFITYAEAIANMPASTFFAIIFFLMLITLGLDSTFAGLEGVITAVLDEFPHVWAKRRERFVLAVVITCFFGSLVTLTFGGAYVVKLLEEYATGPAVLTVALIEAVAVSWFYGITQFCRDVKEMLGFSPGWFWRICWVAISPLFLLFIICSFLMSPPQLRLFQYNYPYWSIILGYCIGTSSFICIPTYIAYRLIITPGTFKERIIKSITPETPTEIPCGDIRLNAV
T4 sequence (P41143 whole entry): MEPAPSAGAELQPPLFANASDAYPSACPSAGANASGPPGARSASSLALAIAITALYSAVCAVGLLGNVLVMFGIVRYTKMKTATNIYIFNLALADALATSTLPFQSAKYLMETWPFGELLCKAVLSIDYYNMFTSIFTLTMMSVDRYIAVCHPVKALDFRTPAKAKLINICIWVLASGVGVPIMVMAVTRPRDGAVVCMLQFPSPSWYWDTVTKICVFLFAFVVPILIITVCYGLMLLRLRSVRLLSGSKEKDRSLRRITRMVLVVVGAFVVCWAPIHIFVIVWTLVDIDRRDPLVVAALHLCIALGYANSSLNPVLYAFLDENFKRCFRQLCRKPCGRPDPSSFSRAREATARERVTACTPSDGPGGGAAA

CCC1(c2cnc[nH]2)Cc2ccccc2C1 [atipamezole]
Kd (human α1Rs; read-out: Affinity (Kd) at each of the α1Rs): ≥ 1000 nM
β-arrestin2 recruitment, agonist mode (α2AR [1]): did not recruit β-arrestin2
Affinity (Kd) at each of the human α2Rs (human α2Rs): double-digit nM
Kb (α2AR [2]): 6.92 nM
Kd (β1 and β2 adrenoceptors): > 30 µM

CC(C)NCC(O)c1ccc(O)c(O)c1 (stereo not shown) [isoproterenol]
pERK relative to buffer, α2AR-transfected HEK293 [3]: significantly increased pERK
pERK relative to buffer, nontransfected HEK293 ([4]; 1 μM, 5 min): stimulated pERK
pERK-stimulating effect with 100 nM atipamezole cotreatment [4]: not affected
pERK-stimulating effect with 100 nM prazosin cotreatment [4]: not affected

CNC[C@H](O)c1cccc(O)c1 [phenylephrine]
pERK, nontransfected HEK293 [4]: robust increases in pERK

CNC[C@H](O)c1ccc(O)c(O)c1 [epinephrine]
Emax (α1AR [5]; [13]): 279%

Brc1c(NC2=NCCN2)ccc2nccnc12 [UK 14, 304 (brimonidine), brimonidine, reference compound]
β-arrestin2 recruitment, agonist mode (α2AR [1]): robust α2AR-β-arrestin2 recruitment
pERK, nontransfected HEK293 [4]: did not increase pERK

Clc1cccc(Cl)c1N=C1NCCN1 [clonidine]
Activation of Gαq or Gα11 via α2ARs (α2AR [6]): no effect
Effect on forskolin-induced cAMP, rat α2AR in HEK293 (rat α2AR [7]): attenuated forskolin-induced cAMP production
pERK-stimulating effect in Gαq/11 knockout HEK293 cells ([4]; 1 μM, 5 min, vs CRISPR scrambled): abolished
pERK-stimulating effect with 100 nM atipamezole cotreatment [4]: did not affect
pERK-stimulating effect with 100 nM prazosin cotreatment [4]: abolished
Emax (α1AR [5]; [13]): 100%
Emax (α1AR [5]; [14]): 100%
Effect on forskolin-stimulated cAMP, rat α2AR (rat α2AR [8]): agonist
Effect on forskolin-stimulated cAMP, human α2AR (α2AR [9]): decreased forskolin-stimulated cAMP production
EC50 (α1A and α1BR): < 100 nM

CC[C@@H]1CN2CC[C@@]3(O)C(=Nc4cccc(OC)c43)[C@@H]2C[C@@H]1/C(=C\OC)C(=O)OC [7-Hydroxymitragynine]
Inhibition of specific radioligand binding, α2A (α2AR [10]): less than 15%
Inhibition of specific radioligand binding, α1A (α1AR [11]): less than 15%
Inhibition of the activity of enzymes tested (any enzyme tested): did not inhibit the activity of any enzyme tested
Inhibition of radioligand binding, δ-opioid receptors (δ-opioid receptors): more than 50%
Inhibition of specific radioligand binding, α1D (α1DR): less than 15%
Inhibition of radioligand binding, κ-opioid receptors (κ-opioid receptors): more than 50%
Inhibition of specific radioligand binding, α1B (α1BR): less than 15%
Inhibition of radioligand binding, μ-opioid receptors (μ-opioid receptors): more than 50%
Inhibition of specific radioligand binding, α2B (α2BR): less than 15%

COc1cc2nc(N3CCN(C(=O)c4ccco4)CC3)nc(N)c2cc1OC [Prazosin, prazosin]
Affinity (Kd) at each of the α1Rs (human α1Rs): single-digit nM or higher affinity
Kd (human α2Rs; read-out: Affinity (Kd) at each of the human α2Rs): ≥ 300 nM
Kd (β1 and β2 adrenoceptors): ≥ 8 µM

CC(Oc1c(Cl)cccc1Cl)C1=NCCN1 (stereo not shown) [lofexidine]
EC50 (α1AR [5]; EC50, α11, α1AR-Gα11): 112 nM
EC50 (α1AR [5]; EC50, αq, α1AR-Gαq): 95.5 nM
Emax (α1AR [5]; [13]): 76%
Emax (α1AR [5]; [14]): 84%

CC[C@@H]1CN2CCc3c([nH]c4cccc(O)c34)[C@@H]2C[C@@H]1/C(=C\OC)C(=O)OC [9-Hydroxycorynantheidine]
Inhibition of specific radioligand binding, α2A (α2AR [10]): less than 25%
Inhibition of specific radioligand binding, α1A (α1AR [11]): more than 60%
Inhibition of COX2 (COX2): > 70%
Inhibition of specific radioligand binding, α1D (α1DR): more than 60%
Inhibition of radioligand binding, voltage-gated sodium channels [12]: ~57%
Inhibition of specific radioligand binding, α2B (α2BR): less than 25%
Inhibition of radioligand binding, serotonin transporter (serotonin transporter): ~58%
